Results on 7 compounds are retold here after ChEMBL document CHEMBL2396528, “Synthesis of new conjugated coumarin-benzimidazole hybrids and their anticancer activity” (2013).

What all share (type): functional
Experiment [1] is described as follows: Cytotoxicity against human NCI-ADR-RES cells assessed as growth inhibition at 10 uM after 48 hrs by SRB assay relative to control. Particulars: read-out: GI. Background: The SRB assay estimates cell density from bound dye.
Another experiment deals with OVCAR-4. Nature of the experiment: Cytotoxicity against human OVCAR4 cells assessed as growth inhibition at 10 uM after 48 hrs by SRB assay relative to control. The note with it: OVCAR-4, 48 h, read-out: GI.
In another experiment the test system is IGROV-1. In words: Cytotoxicity against human IGROV1 cells assessed as growth inhibition at 10 uM after 48 hrs by SRB assay relative to control. The note with it: IGROV-1, 48 h, read-out: GI.
The next experiment has as its system T47D. Nature of the experiment: Cytotoxicity against human T47D cells assessed as growth inhibition at 10 uM after 48 hrs by SRB assay relative to control. The note with it: read-out: GI.
In a further experiment the test system is SF-295. In words: Cytotoxicity against human SF295 cells assessed as growth inhibition at 10 uM after 48 hrs by SRB assay relative to control. The note with it: SF-295, 48 h, read-out: GI.
For a further experiment, the system named is A549. In words: Cytotoxicity against human A549 cells assessed as growth inhibition at 10 uM after 48 hrs by SRB assay relative to control. The note with it: A549, 48 h, read-out: GI.
For a further experiment, the system named is KM12. In words: Cytotoxicity against human KM12 cells assessed as growth inhibition at 10 uM after 48 hrs by SRB assay relative to control. The note with it: KM12, 48 h, read-out: GI.
The next experiment relates to K562. Nature of the experiment: Cytotoxicity against human K562 cells assessed as growth inhibition at 10 uM after 48 hrs by SRB assay relative to control. Particulars: K562, 48 h, read-out: GI.
The next experiment deals with ACHN. Nature of the experiment: Cytotoxicity against human ACHN cells assessed as growth inhibition at 10 uM after 48 hrs by SRB assay relative to control. Particulars: read-out: GI.
A further experiment concerns SF-268. Nature of the experiment: Cytotoxicity against human SF268 cells assessed as growth inhibition at 10 uM after 48 hrs by SRB assay relative to control. Particulars: SF-268, 48 h, read-out: GI.
In the next experiment the test system is LOX IMVI. In words: Cytotoxicity against human LOXIMVI cells assessed as growth inhibition at 10 uM after 48 hrs by SRB assay relative to control. The note with it: read-out: GI.
The subject of another experiment is SN12C. Nature of the experiment: Cytotoxicity against human SN12C cells assessed as growth inhibition at 10 uM after 48 hrs by SRB assay relative to control. Particulars: read-out: GI.
A further experiment relates to PC-3. Nature of the experiment: Cytotoxicity against human PC3 cells assessed as growth inhibition at 10 uM after 48 hrs by SRB assay relative to control. Particulars: PC-3, 48 h, read-out: GI.
Another experiment deals with HCT-15. Nature of the experiment: Cytotoxicity against human HCT15 cells assessed as growth inhibition at 10 uM after 48 hrs by SRB assay relative to control. The note with it: HCT-15, 48 h, read-out: GI.
The next experiment deals with NCI-H322M. Nature of the experiment: Cytotoxicity against human NCI-H322M cells assessed as growth inhibition at 10 uM after 48 hrs by SRB assay relative to control. The note with it: read-out: GI.
A further experiment has as its system RPMI-8226. In words: Cytotoxicity against human RPMI8226 cells assessed as growth inhibition at 10 uM after 48 hrs by SRB assay relative to control. Particulars: RPMI-8226, 48 h, read-out: GI.
A further experiment concerns Malme-3M. In words: Cytotoxicity against human MALME-3M cells assessed as growth inhibition at 10 uM after 48 hrs by SRB assay relative to control. Particulars: read-out: GI.

Consider `CN1CCN(c2ccc3cc(-c4nc5ccccc5[nH]4)c(=O)oc3c2)CC1`, for which the inhibition of growth at 10 µM in [1] is less than 20%; in the experiment with OVCAR-4, 29.8%; in the experiment with IGROV-1, 20.1%; with T47D, 23.1%; with SF-295, less than 20%; with A549 it was less than 20%. The inhibition of growth at 10 µM with KM12 is less than 20%; in the experiment on K562, 56.4%; in the experiment on ACHN, less than 20%; in the experiment with SF-268, less than 20%; in the experiment with LOX IMVI, less than 20%; in the experiment on SN12C, less than 20%. The inhibition of growth at 10 µM in the experiment with PC-3 was less than 20%; in the experiment on HCT-15 it was less than 20%; with NCI-H322M, less than 20%; in the experiment with RPMI-8226 it was 35.4%; in the experiment with Malme-3M it was less than 20%.
Take `NCCNc1ccc2cc(-c3nc4ccccc4[nH]3)c(=O)oc2c1`: the inhibition of growth at 10 µM (in [1]; in the experiment with OVCAR-4; with IGROV-1; in the experiment on T47D; in the experiment on SF-295; in the experiment with A549) was less than 20% throughout. Moreover, the inhibition of growth at 10 µM with KM12, in the experiment with K562, in the experiment with ACHN, in the experiment with SF-268, with LOX IMVI and with SN12C was less than 20% in each case. Also, the inhibition of growth at 10 µM in the experiment on PC-3 was 20.3%; in the experiment with HCT-15, 20.6%; with NCI-H322M, less than 20%; in the experiment with Malme-3M it was less than 20%.
As for `O=c1oc2cc(NCCO)ccc2cc1-c1nc2ccccc2[nH]1`, the inhibition of growth at 10 µM in experiment [1] is 23.7%; with OVCAR-4, 44.8%; in the experiment on IGROV-1, 24.5%; in the experiment on T47D, 70.7%; with SF-295, 24.5%; in the experiment on A549, less than 20%. Also, the inhibition of growth at 10 µM in the experiment with KM12 is less than 20%; with K562, 57.3%; in the experiment with ACHN, less than 20%; in the experiment with SF-268 it was 26.1%; with LOX IMVI it was 54.3%; in the experiment with SN12C it was 22.4%. Also, the inhibition of growth at 10 µM in the experiment with PC-3 was 56.7%; in the experiment on HCT-15, 72.7%; in the experiment with NCI-H322M it was 29.7%; with RPMI-8226, 46.6%; in the experiment with Malme-3M, 29.8%.
Consider `O=c1oc2cc(N3CCOCC3)ccc2cc1-c1nc2ccccc2[nH]1`, for which the inhibition of growth at 10 µM (in [1]; in the experiment with OVCAR-4; with IGROV-1; in the experiment with T47D; in the experiment on SF-295; in the experiment with A549) was less than 20% each time. Moreover, the inhibition of growth at 10 µM in the experiment on KM12, in the experiment with K562, with ACHN, in the experiment on SF-268, in the experiment on LOX IMVI and in the experiment with SN12C was less than 20% each time. For the same compound, the inhibition of growth at 10 µM in the experiment with PC-3, in the experiment with HCT-15, in the experiment on NCI-H322M, with RPMI-8226 and with Malme-3M was less than 20% each time.
As for `O=c1[nH]cc(F)c(=O)[nH]1` [FLUOROURACIL], the inhibition of growth at 10 µM was 47.6% in experiment [1]; 59.4% in the experiment on OVCAR-4; 51.2% in the experiment with IGROV-1; 56.7% with T47D; 69% in the experiment with SF-295; 34.2% in the experiment with A549. Further, the inhibition of growth at 10 µM in the experiment with KM12 is 40.7%; with K562 it was 42.3%; in the experiment with ACHN, 39.3%; in the experiment on SF-268, 59%; in the experiment with LOX IMVI it was 30.4%; in the experiment on SN12C, 54%. Moreover, the inhibition of growth at 10 µM is 58.2% in the experiment with PC-3; 26.5% in the experiment with HCT-15; 59.5% in the experiment on NCI-H322M; 41.4% in the experiment on RPMI-8226; 58.2% in the experiment on Malme-3M.
For `O=c1oc2cc(Br)ccc2cc1-c1nc2ccccc2[nH]1`, the inhibition of growth at 10 µM in [1] is less than 20%; in the experiment on OVCAR-4 it was less than 20%; with IGROV-1, less than 20%; in the experiment on T47D, 28.4%; in the experiment with SF-295 it was less than 20%; with A549, less than 20%. In addition, the inhibition of growth at 10 µM with KM12, in the experiment on K562, in the experiment on ACHN, in the experiment with SF-268, in the experiment on LOX IMVI and with SN12C was less than 20% each time. The inhibition of growth at 10 µM in the experiment with PC-3, in the experiment with HCT-15, with NCI-H322M, with RPMI-8226 and with Malme-3M was less than 20% throughout.
As to `O=c1oc2cc(NCCN3CCOCC3)ccc2cc1-c1nc2ccccc2[nH]1`, the inhibition of growth at 10 µM (in experiment [1]; in the experiment on OVCAR-4; in the experiment with IGROV-1; with T47D; in the experiment on SF-295; with A549) was less than 20% each time. Also, the inhibition of growth at 10 µM in the experiment with KM12, in the experiment on K562, with ACHN, in the experiment with SF-268, in the experiment on LOX IMVI and with SN12C was less than 20% each time. Moreover, the inhibition of growth at 10 µM with PC-3, in the experiment with HCT-15, in the experiment on NCI-H322M, with RPMI-8226 and with Malme-3M was less than 20% throughout.
